Data taken from patent US20250207127A1, “PHYTOECDYSONES AND/OR 20-HYDROXYECDYSONE DERIVATIVES IN COMBINATION WITH AN ACTIVE INGREDIENT FOR RESTORING SMN EXPRESSION, FOR USE IN THE TREATMENT OF SPINAL MUSCULAR ATROPHY” (BIOPHYTIS, priority 2021, published 2025).
Strand notation (5' to 3'): a small letter for the sugar, then the base; units joined by * are phosphorothioate-linked, units joined directly phosphodiester-linked; [ ] holds rarer units or linkages, { } end groups; capitals alone tell only the bases. e = 2'-O-(2-methoxyethyl) (MOE); [5mC] = 5-methylcytosine

Experiments:
Type in all cases: in vivo, mouse
[1] = system: SMA mice (Smn^Δ7/Δ7; huSMN2^+/−); assay: Grip-test (muscle fatigability) of SMA mice; conditions: relative to mismatch ASO
Method: (§1) On the day of injection, the ASO stock solution is diluted to the concentration of 2 μg/μL in 0.9% NaCl. Methylene blue 0.04% is added to the solution as an injection control. Newborn SMA mice receive a single dose of ASO 10-27 or ASO mismatch of 8 μg on the 1st post-natal day (PO) by unilateral intra-cerebro-ventricular injection using a Hamilton syringe and a 32G needle. The injection site is located 1 mm from the sagittal suture, between bregma and lambda, landmarks visible through the skin at PO. The needle is positioned perpendicular to the injection site on the surface of the skin and inserted approximately 3 mm deep to reach the lateral ventricle.
(§2) The complementary treatment BIO101 complexed with cyclodextrin is administered daily to the mice from the first post-natal day (PO) orally at a dose of 50 mg/kg using a pipette.
(§3) We performed phenotypic analyses of severe SMA type 2 mice treated with BIO101 alone or a mismatch ASO or ASO 10-27 alone, or with an ASO 10-27+BIO101 combined treatment from PO. […] We, on the one hand, evaluated the movement capacities by the open-field test (FIG. 3), as well as the muscular fatigability by grip-test (FIG. 4), as previously described (Biondi et al., 2008; Branchu et al., 2013; Chali et al., 2016).
In order to assess the muscle fatigability, the grip strength of the mice's forelimbs was tested. […] The time spent hanging on is recorded. […]

[2] = system: SMA mice (Smn^Δ7/Δ7; huSMN2^+/−); assay: Survival of severe SMA mice treated from P0
From the text: (§4) The antisense oligonucleotide (ASO) of sequence SEQ ID NO: 23 (5′-TCACTTTCATAATGCTGG-3′), of reference ISIS 396443, also known under the name ISIS-SMNRx, and called in the remainder of the description ASO 10-27, complementary to 18 bases (bases 10 to 27) of intron 7 of the SMN2 gene (targeting a site in intron 7, called ISS-N1, which represses the inclusion of exon 7 of the pre-messenger RNA (pre-mRNA) of the SMN2 gene) having modified nucleotides 2′-O-methoxyethyl on the 2′ carbon atom of deoxyribose for each base, with a phosphorothioate backbone and 5-methyl cytosines and the control ASO (denoted mismatch) of sequence SEQ ID NO°: 24 (5′-TTAGTTTAATCACGCTCG-3′) (Singh et al. 2006; Williams et al. 2009), were synthesised and purified as previously described (Baker et al. 1997, Hua et al. 2008; Passini et al., 2011). The oligonucleotides are resuspended at a concentration of 8 μg/μL in 0.9% NaCl and stored at −20° C.
as §1, §2
(§5) A severe SMA mouse model was used on a FVB/NRj genetic background, characterised by the invalidation of exon 7 of the murine Smn gene and expressing two copies of the human SMN2 transgene (Smn^Δ7/Δ7; huSMN2−/+) (Hsieh et al., 2000). The mice resulting from these crosses having the genotype “FVB/NRj-Smn^Δ7/Δ7 huSMN2−/+2 copies” are described as “SMA” (Hsieh et al., 2000). SMA mice were treated with either BIO101 alone or a mismatch ASO or an ASO 10-27 alone, or with an ASO 10-27+BIO101 combined treatment starting from PO. Survival (FIG. 1) and weight

[3] = system: SMA mice (Smn^Δ7/Δ7; huSMN2^+/−); assay: Weight evolution of severe SMA mice treated from P0; conditions: relative to mismatch ASO
From the text: as §4, §1, §2, §5

[4] = system: SMA mice (Smn^Δ7/Δ7; huSMN2^+/−); assay: Open-field test (movement capacities) of SMA mice; conditions: at P15, 5 minutes, mean±SEM
Method: as §1, with “ventricle. […]” for “ventricle.”
as §3
The device used for open-field testing consists of a plastic box measuring 28×28×5 cm with a field grid divided into 16 tiles measuring 7 cm×7 cm. […] The behavioural measurements were recorded by the experimenter during these 5 minutes and the total number of crossed tiles was recorded.

[5] = SMA mice, ASO 8 μg single ICV injection at P0, BIO101 50 mg/kg oral daily from P0

Question: What does the source list for “5′-TCACTTTCATAATGCTGG-3′ (antisense eT*e[5mC]*eA*e[5mC]*eT*eT*eT*e[5mC]*eA*eT*eA*eA*eT*eG*e[5mC]*eT*eG*eG) [ASO 10-27, antisense oligonucleotide complementary to bases 10 to 27 of intron 7 of the SMN2 gene]”?
Answer: improvement of resistance to fatigue (grip-test) ([1]; at P7): not improved; improvement of resistance to fatigue (grip-test) ([1]; at P15): 7.7%; median survival [2, 5]: 18 days; improvement in animal survival ([2]; median survival compared to mismatch ASO control group): 38%; increase of average weight ([3]; at P7): does not increase; increase of average weight ([3]; at P8): 9.9%; increase of average weight ([3]; at P9): 13.9%; increase of average weight ([3]; at P10): 16%; total number of crossed tiles (open field) [4]: 70±20 tiles

Question: Which results are given for “5′-TTAGTTTAATCACGCTCG-3′ (listed as DNA, chemistry not given here) [mismatch ASO, control ASO (denoted mismatch)]”?
Answer: average lifespan of the mouse pups [2, 5]: 13 days; median survival [2, 5]: 13 days
